Assays:
[1] = system: transgenic plants overexpressing miR164; test: Restoration of fertility of transgenic plants overexpressing miR164 by external application of hormones; assay type: in vivo, rice; details: two T0 transgenic plants; four phytohormones (IAA, NAA, KT, 6-BA) applied continually from tillering stage to grain filling stage; FIG. 7
From the text: Two T0 transgenic plants overexpressing miR164 were continually subjected to external application of four phytohormones, indoleacetic acid (IAA), naphthaleneacetic acid (NAA), kinetin (KT), and 6-benzylaminopurine (6-BA) from tillering stage to grain filling stage, and compared with the transgenic plants overexpressing miR164 grown normally. […] That the fertility of transgenic rice plants overexpressing miR164 could be restored by external application of hormones can be taken advantage of to conveniently use a transgenic rice plant to breed a sterile line (without application of hormones) or a maintainer line (by external application of hormones to allow the sterile line to produce seeds and to be reproduced; however the next generation is still sterile without externally applied hormones), thereby achieving “the double usage of a single line” for the breeding of hybrid rice.

[2] = system: miR164; test: Expression level of mature miR164 after phytohormone treatment, Northern blotting; assay type: in vivo, rice variety Minghui 63 (Oryza sativa L. ssp. Indica); details: hormone sprayed onto rice plants at 4-leaf stage; for change in expression of miR164 after phytohormone treatment: leaves, Northern blotting, FIG. 3
Experimental: The indica rice variety “Minghui 63” was used for expression profile analysis. Phytohormone treatment was carried out by evenly spraying the hormones onto the surfaces of the rice plants at the 4-leaf stage obtained from seeds which had been induced to germinate and cultivated under normal growth conditions for 18-20 days. The plants treated with kinetin and gibberellin were sampled before treatment as well as 1 min, 5 min, 10 min, 20 min, 30 min, 1 h, and 3 h after treatment. The plants treated with naphthaleneacetic acid were sampled before treatment as well as 30 min, 3 h, 9 h and 24 h after treatment. The plants treated with brassinolide were sampled before treatment as well as 15 min, 30 min, 1 h, 3 h, 6 h, 9 h and 21 h after treatment. Light treatment of etiolated shoots was performed by subjecting seeds to induction of germination and continuous cultivation in dark for 14 days followed by transferring the etiolated shoots to normal lighting conditions. Samples were taken before light treatment as well as 3 h, 6 h and 9 h after light treatment. Total RNA was extracted from leaves using Trizol reagent (Invitrogen Corp.), and then transferred to membrane as described by Xie et al. (Xie K, Wu C, and Xiong L. Genomic organization, differential expression, and interaction of SQUAMOSA promoter-binding-like transcription factors and microRNA156 in rice. Plant Physiol, 2006, 142: 280-293). Northern hybridization was performed using miR164 as the probe. […] The expression level of miR164 increased 24 hours after naphthaleneacetic acid (NAA) treatment.

[3] = system: rice pollens; test: Fertility phenotype of transgenic plants overexpressing miR164 (iodine staining of pollens); assay type: in vivo; details: overexpression under ubiquitin promoter; FIG. 6
From the text: This abnormality made the glumes unable to open such that the filaments, although elongated, could not extend out of the glumes (FIG. 6B). […] Moreover, the ovaries of most of the transgenic plants overexpressing miR164 stopped growing or even died (FIG. 6C to 6E). The development of anthers in the transgenic plants overexpressing miR164 was abnormal. […] The pollens of the transgenic plants overexpressing miR164 were not in the normal globular shape, but were shrunken (FIG. 6F to 6K). […] The sterility of the transgenic plants overexpressing miR164 could be utilized to conveniently breed a rice sterile line for hybrid rice breeding.

[4] = system: rice root system; test: Root system phenotype of transgenic plants overexpressing miR164 on 1/2 MS medium; assay type: in vivo; details: overexpression under ubiquitin promoter; 10 days on 1/2 MS basal media; FIG. 5
Experimental: In this example, transgenic plants overexpressing miR164 (FIG. 4) and wild-type plants were grown in ½ MS medium and observed for their phenotypes. The procedure was carried out as follows, Rice seeds from transgenic lines overexpressing miR164 were husked and disinfected (75% alcohol treatment for 3 minutes followed by 0.15% HgCl2 treatment for 30 minutes, and rinsed with sterile water for several times), and then allowed to germinate on the ½ MS basal media containing 50 mg/L hygromycin. One day later, the rice seeds from wild-type control lines were placed on the ½ MS basal media without hygromycin and allowed to germinate. Two to three days later, well germinated and consistently grown seeds were transferred to ½ MS basal media and cultivated in an illumination incubator (which simulated natural growth condition of 14-hour light and 10-hour darkness) for 10 days for phenotype observation. More than 30 plants were selected for each of the transgenic and wild-type plant lines, and each experiment was run in triplicate.

c1ccc(CNc2ncnc3nc[nH]c23)cc1 [6-benzylaminopurine, 6-Benzylaminopurine]
seed production of transgenic plants overexpressing miR164 after external application of hormones [1]: produce seeds normally

c1coc(CNc2ncnc3[nH]cnc23)c1 [Kinetin]
seed production of transgenic plants overexpressing miR164 after external application of hormones [1]: produce seeds normally
change in expression of miR164 after phytohormone treatment [2]: decreased gradually

CC(C)[C@H](C)[C@@H](O)[C@H](O)[C@@H](C)[C@H]1CC[C@H]2[C@@H]3COC(=O)[C@H]4C[C@H](O)[C@H](O)C[C@]4(C)[C@H]3CC[C@]12C [brassinolide]
change in expression of miR164 after phytohormone treatment [2]: no obvious change

O=C(O)Cc1c[nH]c2ccccc12 [indoleacetic acid, Indole-3-acetic acid]
seed production of transgenic plants overexpressing miR164 after external application of hormones [1]: produce seeds normally

gibberellin
change in expression of miR164 after phytohormone treatment [2]: increased
time of peak miR164 expression after treatment ([2]; then dropping to the level before treatment): 10 min

miR164: mature microRNA (SEQ ID NO: 2) from the rice miR164 gene (SEQ ID NO: 1), overexpressed in rice under a ubiquitin promoter (UGGAGAAGCAGGGCACGUGCA; listed as Oryza sativa)
pollen fertility of transgenic plants (iodine staining) [3]: completely sterile
root system of transgenic plants versus wild-type plants [4]: obviously larger root systems
